Data set [1] deals with food-source rabbit eyes (cornea). How it is done: All of the steps of the META test are the same as the direct test except for the dosing step. For the META, 100 µL of tear solution (saline with ascorbic acid, protein) is first added to the dosing ring, followed by the addition of 100 µL of the material to be tested.
(§1) Because of these modifications, we have updated our prediction model to include the metabolic test to identify reversible irritants or toxicity as shown in FIG. 3. For GHS (A) and EPA (B) classification systems, if the direct procedure (100 µL, washed after 1 minute exposure with 20 mL tear solution using a blunt end syringe 2-5 cm from cornea to create a laminar flow across the tissue) is negative, the metabolic result is used to confirm the negative result or identify reversible irritants or toxicity (GHS 2 or EPA II) if increased DoI is detected. […] For the GHS classification system, the NC is defined by no stromal DoI and a negative metabolic test.
NOTE: The steps of the main procedure are the same as described above. The only deviations are described below and apply to the dosing of the corneas and interpretation of results. • 1) After the pre-incubation, remove the 12 well plate(s) from the incubator and place in the hood. • 2) Using a skinny sharpie, label the wells on the lid (water or specific chemical). • 3) Place an eye on the holder and carefully place a new cloning ring in the middle of the cornea without scratching it. • 4) Remove the needle from the syringe by twisting it off. Fill the syringe with 40 mL of 1x PBS by aliquoting it from the beaker. • 5) Put the needle back on the syringe by twisting on and remove the cap protecting the needle. Place the syringe flat on a sterile piece of foil. • 6) Obtain the timer. Add 100 uL of the T8 tear solution in the center of the dosing ring. Ensure the entire surface is covered. • 7) Retrieve 100 uL of the sample and aspirate in the center of the dosing ring, ensuring the entire surface is exposed.

The test system is the same in data set [2]. How it is done:
as §1
Only food source eyes are suitable for this procedure.
3) Put the lid onto the 12 well plate(s) and place into the incubator (37° C., 5% CO2) for one hour.
3) Place an eye on the holder and carefully place a new cloning ring in the middle of the cornea without scratching it.
9) Start the timer for one minute.
10) After the one minute is over, remove the dosing ring and put in the proper container, and pick up the tissue without touching the cornea and hold it over the container for liquid waste.
This is another data set of the same source.

The subject of data set [3] is rabbit eye (cornea, iris, and conjunctiva). The following applies: Lebrun et al., cited from earlier work; for in vivo EPA: EPA classification, 2020 / NICEATM, 2006; for in vivo GHS: GHS classification, 2020.
Data set [4] concerns food-source rabbit eyes (cornea). The following applies: for Prediction EPA: EPA prediction model from direct and metabolic results; for Prediction GHS: GHS prediction model from direct and metabolic results.
Source text: FIG. 3 depicts the EPA and GHS prediction models. […] Meta. = Metabolic; GHS = Globally Harmonized System of Classification and Labeling of chemicals; EPA = Environmental Protection Agency; NC = Not Classified; * = Apical death of epithelium of at least 10%; must be a clear line of nuclei.
as §1

Where [5] appears, read: 6 minutes, 100 µL tear solution then 100 µL test material, run only where Direct was 0%.
Setting [6] is: 100 µL, 1 minute exposure, tear solution wash, 24 hours organ culture.

Like-named read-outs stand apart in the source and are kept apart here.

`OCCCCC(O)CO` (stereo not shown) [1,2,6-Hexanetriol]: the “Meta. (Metabolic)” value in data set [1] (setting [5]) is given as “Neg”. Further, the “Direct (depth of injury, stromal)” value in data set [2] (setting [6]) is 0.0%.

Take `BrCCCCCCBr` [1,6-Dibromohexane]: the “Meta. (Metabolic)” value in data set [1] (setting [5]) is recorded as “Neg”. Besides, in data set [2] (setting [6]), the “Direct (depth of injury, stromal)” value was 0.0%.

In the case of `CCC(C)(C)C(=O)O` [2,2-Dimethyl butanoic acid], in data set [3], the “in vivo EPA” value was “I (I (corrosive, lesions are not reversed within 21 days))” and the “in vivo GHS” value is recorded as 1 (1 (extreme and/or irreversible irritation effects that are not reversed within 21 days)). In addition, in data set [2] (rabbit, 1 min), the “Direct (depth of injury, stromal)” value is 27.4%.

As for `CC(O)CC(C)O` (stereo not shown) [2,4-Pentanediol], the “Meta. (Metabolic)” value in data set [1] is “Neg”. Besides, in data set [2] (rabbit, 1 min), the “Direct (depth of injury, stromal)” value came to 0.0%.

As for `CCOC(=O)C(C)(C)O` [2-Hydroxy isobutyric acid ethyl ester], in data set [3], the “in vivo EPA” value is “*I^2 (I (corrosive, lesions are not reversed within 21 days))” and the “in vivo GHS” value is 1 (1 (extreme and/or irreversible irritation effects that are not reversed within 21 days)). Also, in data set [2] (rabbit, 1 min), the “Direct (depth of injury, stromal)” value was determined as 42.3%.

As for `CCCC(C)CO` (stereo not shown) [2-Methyl-1-pentanol], in data set [3], the “in vivo EPA” value is on record as “III (III (damage is reversed within 7 days of exposure))” and the “in vivo GHS” value was 2B (2 B, within 7 days). Moreover, in data set [4], the “Prediction EPA” value is reported as “III (category III includes damage to the epithelium of the stroma up to 15%)”. Also, the “Direct (depth of injury, stromal)” value in data set [2] (rabbit, 1 min) was 5.7%.

As for `N#CCCCl` [3-Chloropropionitrile], in data set [3], the “in vivo EPA” value is “III (III (damage is reversed within 7 days of exposure))” and the “in vivo GHS” value is given as 2B (2 B, within 7 days). Further, in data set [4], the “Prediction EPA” value is on record as “III (category III includes damage to the epithelium of the stroma up to 15%)” and the “Prediction GHS” value is given as 2 (Category 2 is identified by any stromal DoI up to 18% or a positive metabolic test). Moreover, the “Direct (depth of injury, stromal)” value in data set [2] (setting [6]) is given as 12.0%.

With `COCC(O)CO` (stereo not shown) [3-Methoxy-1,2-propanediol], the “Meta. (Metabolic)” value in data set [1] (setting [5]) is given as “Neg”. For the same compound, the “Direct (depth of injury, stromal)” value in data set [2] (setting [6]) stood at 0.0%.

Regarding `CC(=O)O` [Acetic Acid (10%), Acetic Acid], in data set [3], the “in vivo EPA” value was “I (I (corrosive, lesions are not reversed within 21 days))” and the “in vivo GHS” value is listed as 1 (1 (extreme and/or irreversible irritation effects that are not reversed within 21 days)).

For `O=S(=O)(Cl)c1ccccc1` [Benzenesulphonylchloride], in data set [3], the “in vivo EPA” value is recorded as “*I^2 (I (corrosive, lesions are not reversed within 21 days))” and the “in vivo GHS” value is 1 (1 (extreme and/or irreversible irritation effects that are not reversed within 21 days)). For the same compound, in data set [4], the “Prediction EPA” value is given as “I (category I includes damage greater than 25%)” and the “Prediction GHS” value is 1 (GHS category 1 is defined as stromal damage of 18% or greater). For the same compound, in data set [2] (setting [6]), the “Direct (depth of injury, stromal)” value was 52.8%.

As for `OC1CCCCC1` [Cyclohexanol], in data set [3], the “in vivo EPA” value is reported as “I (I (corrosive, lesions are not reversed within 21 days))” and the “in vivo GHS” value is reported as 1 (1 (extreme and/or irreversible irritation effects that are not reversed within 21 days)). In addition, in data set [4], the “Prediction EPA” value is reported as “I (category I includes damage greater than 25%)” and the “Prediction GHS” value is on record as 1 (GHS category 1 is defined as stromal damage of 18% or greater). In addition, in data set [2] (setting [6]), the “Direct (depth of injury, stromal)” value is 29.6%.

`OC1CCCC1` [Cyclopentanol]: in data set [3], the “in vivo EPA” value is recorded as “II (II (damage is reversed within 21 days of exposure))” and the “in vivo GHS” value was 2B (2 B, within 7 days). Moreover, in data set [4], the “Prediction EPA” value is listed as “I (category I includes damage greater than 25%)” and the “Prediction GHS” value is reported as 1 (GHS category 1 is defined as stromal damage of 18% or greater). For the same compound, the “Direct (depth of injury, stromal)” value in data set [2] (setting [6]) was 30.4%.

Regarding `CC(C)CC(=O)CC(C)C` [Di-iso-butyl ketone], the “Direct (depth of injury, stromal)” value in data set [2] (rabbit, 1 min) is 0.0%.

As to `CCCCCCCCOCCCCCCCC` [Dioctyl ether], the “Meta. (Metabolic)” value in data set [1] is given as “Neg”. In data set [2] (rabbit, 1 min), the “Direct (depth of injury, stromal)” value turned out to be 0.0%.

For the compound `OCC(O)CO` [Glycerol], in data set [2] (rabbit, 1 min), the “Direct (depth of injury, stromal)” value was determined as 0.0%.

For the compound `C[Si](C)(C)O[Si](C)(C)C` [Hexamethyldisiloxane], in data set [1] (setting [5]), the “Meta. (Metabolic)” value was “Neg”. Moreover, the “Direct (depth of injury, stromal)” value in data set [2] (setting [6]) was 0.0%.

Turning to `CCCCCC` [Hexane], in data set [1] (setting [5]), the “Meta. (Metabolic)” value was “Neg”. In addition, the “Direct (depth of injury, stromal)” value in data set [2] (setting [6]) is 0.0%.

Take `C=CC(=O)OCCO` [Hydroxyethyl acrylate]: the “Prediction GHS” value in data set [4] is given as 1 (GHS category 1 is defined as stromal damage of 18% or greater). In addition, the “Direct (depth of injury, stromal)” value in data set [2] (setting [6]) is reported as 100.0%.

As for `CC(=O)CC(=O)OC(C)C` [Isopropyl acetoacetate], the “Meta. (Metabolic)” value in data set [1] was “Pos”. Also, in data set [3], the “in vivo EPA” value is listed as “III (III (damage is reversed within 7 days of exposure))” and the “in vivo GHS” value is listed as 2B (2 B, within 7 days). Also, the “Direct (depth of injury, stromal)” value in data set [2] (rabbit, 1 min) worked out at 0.0%.

For `CC(O)C(=O)O` (stereo not shown) [Lactic acid], in data set [3], the “in vivo EPA” value is listed as “I (I (corrosive, lesions are not reversed within 21 days))” and the “in vivo GHS” value is reported as 1 (1 (extreme and/or irreversible irritation effects that are not reversed within 21 days)). Besides, the “Prediction EPA” value in data set [4] was “I (category I includes damage greater than 25%)”. Also, the “Direct (depth of injury, stromal)” value in data set [2] (rabbit, 1 min) worked out at 100.0%.

For `COC(C)=O` [Methyl acetate], in data set [3], the “in vivo EPA” value is reported as “II (II (damage is reversed within 21 days of exposure))” and the “in vivo GHS” value is 2A (2 A, irritation effects are reversed within 21 days). For the same compound, the “Direct (depth of injury, stromal)” value in data set [2] (rabbit, 1 min) is recorded as 24.0%.

With `CCCCCC(C)=O` [Methyl amyl ketone], the “in vivo EPA” value in data set [3] is on record as “III (III (damage is reversed within 7 days of exposure))”. Moreover, in data set [4], the “Prediction EPA” value is listed as “III (category III includes damage to the epithelium of the stroma up to 15%)” and the “Prediction GHS” value was 2 (Category 2 is identified by any stromal DoI up to 18% or a positive metabolic test). Further, the “Direct (depth of injury, stromal)” value in data set [2] (setting [6]) amounted to 6.0%.

As for `CCCOCC(C)O` (stereo not shown) [Propasol solvent P], in data set [3], the “in vivo EPA” value was “II (II (damage is reversed within 21 days of exposure))” and the “in vivo GHS” value was 2A (2 A, irritation effects are reversed within 21 days). In data set [4], the “Prediction EPA” value is “II (category II includes damage greater than 15% but less than 25% (or is positive for cell death by the metabolic test))” and the “Prediction GHS” value was 1 (GHS category 1 is defined as stromal damage of 18% or greater). Further, in data set [2] (setting [6]), the “Direct (depth of injury, stromal)” value was determined as 18.3%.

For `CC(O)CO` (stereo not shown) [Propylene glycol], the “Meta. (Metabolic)” value in data set [1] is reported as “Neg”. Besides, the “Direct (depth of injury, stromal)” value in data set [2] (rabbit, 1 min) was found to be 0.0%.

Regarding `Cc1ccccc1` [Toluene], in data set [4], the “Prediction GHS” value is given as 1 (GHS category 1 is defined as stromal damage of 18% or greater). Moreover, in data set [2] (setting [6]), the “Direct (depth of injury, stromal)” value stood at 50.1%.

Consider `C=CC(=O)OCCCCCC(C)C` [iso-Octyl acrylate], for which the “Direct (depth of injury, stromal)” value in data set [2] (setting [6]) is 0.0%.

Take `CC(C)CCCCCOC(=O)CS` [iso-Octylthioglycolate]: the “Meta. (Metabolic)” value in data set [1] (setting [5]) is “Neg”. For the same compound, the “Direct (depth of injury, stromal)” value in data set [2] (setting [6]) is 0.0%.

As to `CCCCCCCCBr` [n-Octyl bromide], the “Direct (depth of injury, stromal)” value in data set [2] (setting [6]) was 0.0%.

As for `CCC(C)c1ccccc1` (stereo not shown) [sec-Butylbenzene], the “Meta. (Metabolic)” value in data set [1] (setting [5]) was “Neg”. The “Direct (depth of injury, stromal)” value in data set [2] (setting [6]) is on record as 0.0%.

In the case of Diethylaminopropionitrile, in data set [3], the “in vivo EPA” value is recorded as “II (II (damage is reversed within 21 days of exposure))” and the “in vivo GHS” value is recorded as 1 (1 (extreme and/or irreversible irritation effects that are not reversed within 21 days)). In data set [4], the “Prediction EPA” value is “II (category II includes damage greater than 15% but less than 25% (or is positive for cell death by the metabolic test))” and the “Prediction GHS” value is recorded as 1 (GHS category 1 is defined as stromal damage of 18% or greater). The “Direct (depth of injury, stromal)” value in data set [2] (setting [6]) came out at 56.8%.

Values taken from US20230081986A1, “METHOD AND REAGENTS TO IMPROVE NONANIMAL OCULAR TOXICITY TESTS” (Lebrun Labs LLC, priority 2021, published 2023).
